Source: ChEMBL document CHEMBL1201862, “PubChem BioAssay data set” (2004)
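Method: 48-hour compound exposure of cells in 96-well plates, five concentrations, linear interpolation of endpoints. At the GI50, growth is halved.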 Activity calls are given as the source filed them. No stated cut-off is given here; in the data, active = GI50 up to about 1.1 µM and inactive = higher.

Key:
Assay in all cases: inhibition of tumour cell growth, NCI panel, 48 h
CAKI-1 = test system: CAKI-1
DLD-1 = test system: DLD-1
DMS-273 = test system: DMS-273
HCT-116 = test system: HCT-116
HL-60 = test system: HL-60
KM12 = test system: KM12
LOX IMVI = test system: LOX IMVI
NCI-H460 = test system: NCI-H460
NCI/ADR-RES = test system: NCI/ADR-RES
OVCAR-8 = test system: OVCAR-8
RPMI-8226 = test system: RPMI-8226
SF-268 = test system: SF-268
SK-MEL-28 = test system: SK-MEL-28
SNB-19 = test system: SNB-19
SNB-78 = test system: SNB-78
UACC-257 = test system: UACC-257
XF498 = test system: XF498

Measured: GI50

O=C(O)c1cn2c3c(cc(N4CCN(CCO)CC4)cc3c1=O)SCC2
inactive: CAKI-1 > 100 µM | DLD-1 > 100 µM | DMS-273 > 100 µM | HCT-116 > 100 µM | HL-60 > 100 µM | KM12 > 76.9 µM | LOX IMVI 71.1 µM | NCI-H460 > 95.7 µM | NCI/ADR-RES > 89.7 µM | OVCAR-8 62.8 µM | RPMI-8226 > 100 µM | SF-268 47.3 µM | SK-MEL-28 > 100 µM | SNB-19 96.2 µM | SNB-78 > 79.8 µM | UACC-257 > 100 µM | XF498 23.2 µM
